Reference: ChEMBL document CHEMBL3885881, “DrugMatrix”

Organism: Rattus norvegicus
Assay: DrugMatrix - Regimen: Daily Repeat
Type: toxicity, organism-based, Sprague-Dawley
Set-up: regimen Daily Repeat, gender Male, age 6-8 weeks
Details: in vivo, po, 2000 mg/kg, route oral GAVAGE, dose level High, vehicle .5 % CMC; for ABSOLUTE BASOPHIL / ABSOLUTE EOSINOPHIL / ABSOLUTE LYMPHOCYTE / ABSOLUTE MONOCYTE / ABSOLUTE SEGMENTED NEUTROPHIL / BASOPHIL / EOSINOPHIL / ERYTHROCYTE COUNT / HEMATOCRIT / HEMOGLOBIN / LEUKOCYTE COUNT / LYMPHOCYTE / MEAN CORPUSCULAR HEMOGLOBIN / MEAN CORPUSCULAR HEMOGLOBIN CONCENTRATION / MEAN CORPUSCULAR VOLUME / MONOCYTE / NEUTROPHIL / NUCLEATED RED BLOOD CELLS / PLATELET COUNT: tissue Blood; for ALANINE AMINOTRANSFERASE / ALBUMIN / ALKALINE PHOSPHATASE / ASPARTATE AMINOTRANSFERASE / BLOOD UREA NITROGEN / CARBON DIOXIDE / CHLORIDE / CHOLESTEROL / CREATINE PHOSPHOKINASE / CREATININE / GLUCOSE / LACTATE DEHYDROGENASE / LIPASE / PHOSPHORUS / POTASSIUM / SODIUM / TOTAL BILIRUBIN / TOTAL PROTEIN / URIC ACID: tissue Plasma

In the case of `CC(=O)O[C@]1(C(C)=O)CC[C@H]2[C@@H]3C=C(Cl)C4=CC(=O)CC[C@]4(C)[C@H]3CC[C@@]21C` [CHLORMADINONE ACETATE], the “ABSOLUTE BASOPHIL” value (72 h, time 3 day) is reported as 0 CELLS/uL, the “ABSOLUTE EOSINOPHIL” value (72 h, time 3 day) is reported as 87.33 CELLS/uL and the “ABSOLUTE LYMPHOCYTE” value (72 h, time 3 day) is reported as 10368.67 CELLS/uL. For the same compound, the “ABSOLUTE MONOCYTE” value (72 h, time 3 day) was 145 CELLS/uL, the “ABSOLUTE SEGMENTED NEUTROPHIL” value (72 h, time 3 day) was 665.67 CELLS/uL and the BASOPHIL (72 h, time 3 day) was 0%. For the same compound, the EOSINOPHIL (72 h, time 3 day) was 0.67%, the “ERYTHROCYTE COUNT” value (72 h, time 3 day) was 5.63 x10E6/uL and the HEMATOCRIT (72 h, time 3 day) was 36.4%. For the same compound, the HEMOGLOBIN (72 h, time 3 day) was 14.6 G/DL, the “LEUKOCYTE COUNT” value (72 h, time 3 day) was 11.27 x10E3/uL and the LYMPHOCYTE (72 h, time 3 day) was 90.67%. The “MEAN CORPUSCULAR HEMOGLOBIN” value (72 h, time 3 day) was 25.93 pg, the “MEAN CORPUSCULAR HEMOGLOBIN CONCENTRATION” value (72 h, time 3 day) was 40.1 G/DL and the “MEAN CORPUSCULAR VOLUME” value (72 h, time 3 day) was 64.67 fL. For the same compound, the MONOCYTE (72 h, time 3 day) was 1.33%, the NEUTROPHIL (72 h, time 3 day) was 7.33% and the “NUCLEATED RED BLOOD CELLS” value (72 h, time 3 day) was 0 /100WBC. For the same compound, the “PLATELET COUNT” value (72 h, time 3 day) was 1192 x10E3/uL, the “ALANINE AMINOTRANSFERASE” value (72 h, time 3 day) was 57 u/L and the ALBUMIN (72 h, time 3 day) was 4.57 G/DL. For the same compound, the “ALKALINE PHOSPHATASE” value (72 h, time 3 day) was 388.67 u/L, the “ASPARTATE AMINOTRANSFERASE” value (72 h, time 3 day) was 82 u/L and the “BLOOD UREA NITROGEN” value (72 h, time 3 day) was 16.33 mg/dL. For the same compound, the “CARBON DIOXIDE” value (72 h, time 3 day) was 29 mmol/L, the CHLORIDE (72 h, time 3 day) was 99 MEQ/L and the CHOLESTEROL (72 h, time 3 day) was 79.67 mg/dL. The “CREATINE PHOSPHOKINASE” value (72 h, time 3 day) was 341.33 u/L, the CREATININE (72 h, time 3 day) was 0.18 mg/dL and the GLUCOSE (72 h, time 3 day) was 149.33 mg/dL. The “LACTATE DEHYDROGENASE” value (72 h, time 3 day) was 132.67 u/L, the LIPASE (72 h, time 3 day) was 10 u/L and the PHOSPHORUS (72 h, time 3 day) was 12.23 mg/dL. For the same compound, the POTASSIUM (72 h, time 3 day) was 6.81 MEQ/L, the SODIUM (72 h, time 3 day) was 144.97 MEQ/L and the “TOTAL BILIRUBIN” value (72 h, time 3 day) was 0.17 mg/dL. The “TOTAL PROTEIN” value (72 h, time 3 day) was 6.6 G/DL, the “URIC ACID” value (72 h, time 3 day) was 1.8 mg/dL and the “ABSOLUTE BASOPHIL” value (120 h, time 5 day) was 0 CELLS/uL. For the same compound, the “ABSOLUTE EOSINOPHIL” value (120 h, time 5 day) was 0 CELLS/uL, the “ABSOLUTE LYMPHOCYTE” value (120 h, time 5 day) was 10781.67 CELLS/uL and the “ABSOLUTE MONOCYTE” value (120 h, time 5 day) was 45 CELLS/uL. For the same compound, the “ABSOLUTE SEGMENTED NEUTROPHIL” value (120 h, time 5 day) was 840 CELLS/uL, the BASOPHIL (120 h, time 5 day) was 0% and the EOSINOPHIL (120 h, time 5 day) was 0%. For the same compound, the “ERYTHROCYTE COUNT” value (120 h, time 5 day) was 6.06 x10E6/uL, the HEMATOCRIT (120 h, time 5 day) was 36.83% and the HEMOGLOBIN (120 h, time 5 day) was 14.67 G/DL. For the same compound, the “LEUKOCYTE COUNT” value (120 h, time 5 day) was 11.67 x10E3/uL, the LYMPHOCYTE (120 h, time 5 day) was 92% and the “MEAN CORPUSCULAR HEMOGLOBIN” value (120 h, time 5 day) was 24.23 pg. The “MEAN CORPUSCULAR HEMOGLOBIN CONCENTRATION” value (120 h, time 5 day) was 39.8 G/DL, the “MEAN CORPUSCULAR VOLUME” value (120 h, time 5 day) was 60.87 fL and the MONOCYTE (120 h, time 5 day) was 0.33%. The NEUTROPHIL (120 h, time 5 day) was 7.67%, the “NUCLEATED RED BLOOD CELLS” value (120 h, time 5 day) was 0.33 /100WBC and the “PLATELET COUNT” value (120 h, time 5 day) was 996.33 x10E3/uL. The “ALANINE AMINOTRANSFERASE” value (120 h, time 5 day) was 60.33 u/L, the ALBUMIN (120 h, time 5 day) was 4.3 G/DL and the “ALKALINE PHOSPHATASE” value (120 h, time 5 day) was 310.33 u/L. The “ASPARTATE AMINOTRANSFERASE” value (120 h, time 5 day) was 77.67 u/L, the “BLOOD UREA NITROGEN” value (120 h, time 5 day) was 17.67 mg/dL and the “CARBON DIOXIDE” value (120 h, time 5 day) was 24.67 mmol/L. For the same compound, the CHLORIDE (120 h, time 5 day) was 102.33 MEQ/L, the CHOLESTEROL (120 h, time 5 day) was 67.33 mg/dL and the “CREATINE PHOSPHOKINASE” value (120 h, time 5 day) was 145.33 u/L. The CREATININE (120 h, time 5 day) was 0.2 mg/dL, the GLUCOSE (120 h, time 5 day) was 139 mg/dL and the “LACTATE DEHYDROGENASE” value (120 h, time 5 day) was 117.33 u/L. It also gave an LIPASE (120 h, time 5 day) of 9.67 u/L, a PHOSPHORUS (120 h, time 5 day) of 12.2 mg/dL and a POTASSIUM (120 h, time 5 day) of 7.04 MEQ/L. For the same compound, the SODIUM (120 h, time 5 day) was 143.63 MEQ/L, the “TOTAL BILIRUBIN” value (120 h, time 5 day) was 0.2 mg/dL and the “TOTAL PROTEIN” value (120 h, time 5 day) was 6.37 G/DL. For the same compound, the “URIC ACID” value (120 h, time 5 day) was 1.4 mg/dL.
